Assay results from ChEMBL document CHEMBL3112555, “Danshen diversity defeating dementia” (Bioorg Med Chem Lett, 2014).

How the values were obtained:
Settings in all cases: in vivo
[1] = Oral bioavailability in rat at 100 mg/kg; format: ADME, organism-based
[2] = Bioavailability in rat at 100 mg/kg, ip; format: ADME, organism-based
[3] = Bioavailability in beagle dog; format: ADME, organism-based, Canis lupus familiaris

C[C@H]1COC2=C1C(=O)C(=O)c1c2ccc2c1CCCC2(C)C [CRYPTOTANSHINONE]
bioavailability [1]: 2.1% | bioavailability [2]: 10.6%

O=C(/C=C/c1ccc(O)c(O)c1/C=C/c1ccc(O)c(O)c1)O[C@H](Cc1ccc(O)c(O)c1)C(=O)O [SALVIANOLIC ACID A]
bioavailability [3]: 1.47%
